Results as given in publication PMC5727260, “The Sam-Sam interaction between Ship2 and the EphA2 receptor: design and analysis of peptide inhibitors” (Scientific Reports, 2017).
Positions of bridges follow the written chain, without caps; N, C: chain ends. Residues, ends and D or L forms follow the SMILES beside them. Chains are numbered I, II in the order given.

Experiments:
EphA2 SAM (Homo sapiens) = EphA2 SAM (Homo sapiens) (UniProt P29317); experiment: ITC; conditions: cited from earlier work
Ship2-Sam = target: T1, Ship2-Sam (Homo sapiens, UniProt O15357); experiment: SPR binding of peptides to immobilized Ship2-Sam; conditions: for SPR binding to Ship2-Sam (RUmax): RUmax at 30 and 100 µM peptide, normalized for molecular weight
T1 construct: Its C-terminal sterile alpha motif domain (Ship2-Sam); made in house; host or cells: E. coli
T1 sequence (O15357 1196-1258 limits assumed): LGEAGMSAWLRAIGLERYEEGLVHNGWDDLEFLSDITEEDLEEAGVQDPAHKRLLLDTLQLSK
Protocol: In order to investigate the interaction with Ship2-Sam, all peptides were analysed by SPR experiments (Figs 2, 3 and S5).
SPR experiments were conducted as previously reported.
SPR assays were conducted with the following parameters: (i) flow: 20 μL/min, (ii) contact time: 4.5 min; (iii) running buffer: HBS (HEPES (10 mM), NaCl (150 mM), EDTA (3 mM), pH 7.4).
Reference channel signals were subtracted as blanks and the software BIAevaluation (version 4.1, GE Healthcare) was employed to estimate kinetic and thermodynamic parameters of the complexes.

Chain of EphA2 SAM (Homo sapiens) (P29317 901-971): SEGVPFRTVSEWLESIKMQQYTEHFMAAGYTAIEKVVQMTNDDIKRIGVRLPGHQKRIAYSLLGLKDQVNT

Ship2 SAM (from UniProt O15357)
Kd (EphA2 SAM (Homo sapiens)): 750 nM

CC[C@H](C)[C@H](NC(=O)[C@H](CCCNC(=N)N)NC(=O)[C@H](CCCCN)NC(C)=O)C(=O)NCC(=O)N[C@H](C(=O)N[C@@H](CCCNC(=N)N)C(=O)N[C@@H](CC(C)C)C(=O)N1CCC[C@H]1C(=O)NCC(=O)N[C@@H](Cc1c[nH]cn1)C(=O)N[C@@H](CCC(N)=O)C(=O)N[C@@H](CCCCN)C(=O)N[C@@H](CCCNC(=N)N)C(=O)N[C@@H](CSSC[C@H](NC(=O)[C@H](CO)NC(C)=O)C(=O)N[C@@H](CCCCN)C(=O)N[C@@H](CCSC)C(=O)N[C@@H](CCC(N)=O)C(=O)N[C@@H](CCC(N)=O)C(N)=O)C(=O)N[C@@H](C)C(=O)N[C@@H](Cc1ccc(O)cc1)C(=O)N[C@@H](CO)C(=O)N[C@@H](CC(C)C)C(=O)N[C@@H](CC(C)C)C(=O)NCC(=O)N[C@@H](CC(C)C)C(=O)N[C@@H](CCCCN)C(=O)N[C@@H](CC(=O)O)C(=O)N[C@@H](CCC(N)=O)C(=O)N[C@H](C(N)=O)C(C)C)C(C)C [S13-SS] (I: Ac-KRIGVRLPGHQKRCAYSLLGLKDQV-NH2 / II: Ac-SCKMQQ-NH2; disulfide I:14-II:2)
SPR binding to Ship2-Sam (RUmax) (Ship2-Sam): significant dose-response signal variations | SPR sensorgrams, saturation (Ship2-Sam; wider concentration range (Fig. S5b)): does not reach saturation

Ac-GHQKRIAY-NH2 [KRI]
SPR binding to Ship2-Sam (RUmax) (Ship2-Sam): not able to bind Ship2-Sam

Ac-KRIAYKRIAY-NH2 [(KRI)2]
SPR binding to Ship2-Sam (RUmax) (Ship2-Sam): not able to bind Ship2-Sam
